From patent US10561638B2, “Methods for treating dependence” (Biotie Therapies, Inc., priority 2007, dated 2020)
Entries after “also recorded” stand apart in the source; their conditions may differ.

Assays:
[1] = tested on: MPTP-lesioned squirrel monkey; experiment: MPTP-lesioned squirrel monkey Parkinsonian model; type: in vivo, squirrel monkeys
Description: Twenty four squirrel monkeys, fourteen females and ten males were used in a Parkinsonian model. The twenty-four animals were randomly assigned to one of four treatment groups, with 6 animals per group. The groups consisted of the following: Group A (6 animals) received placebo (water) treatment; Group B (5 animals) received drug nepicastat at 1 mg/kg/day (0.5 mg/kg twice daily); Group C (6 animals) received 4 mg/kg/day (2 mg/kg twice daily); and Group D (6 animals) received 10 mg/kg/day (5 mg/kg twice daily). In Group B, one animal died acutely following MPTP-lesioning, and was not replaced.
Prior to lesioning, animals were subjected to quantitative assessment of spontaneous motor activity using an infrared activity monitor (IRAM) cage. All recording sessions were 60 minutes in length and were carried out for 10 sessions over a period of 2 weeks. The behavior of animals was also assessed by 1 to 3 clinical raters using a parkinsonian clinical rating scale (CRS) once per day (12 noon to 1 pm) for 3 to 5 consecutive days. […] Both the activity monitoring (IRAM) and clinical rating assessments established the mean base-line activity of each animal.
Animals were lesioned by the administration of MPTP at a concentration of 2.0 mg/kg (free-base) via subcutaneous injection to achieve a parkinsonian state. A post-MPTP lesioning behavioral assessment was carried out 2 to 4 weeks after the last MPTP-lesioning. Locomotor activity was monitored by IRAM in 60-minute sessions for 3 to 5 days. Clinical behavior (CAS) was assessed by one to three individuals rating over a period of 3 to 5 days.
Animals were tested for response to L-Dopa and the efficacy of drug nepicastat. Testing was carried out 4 to 12 weeks after the last MPTP dose. L-Dopa was administered at a concentration of either 2.5, 5, or 7.5 mg/kg by oral gavage twice daily (at 10 am and 2 pm) for 7 consecutive days. Behavior was determined by IRAM and CRS. Clinical rating was carried out 60 to 90 minutes following the 10 am morning dose on the last 4 days of treatment. Raters (one to three individuals) were blinded to the different treatment groups. IRAM assessment were preformed for 90 minutes immediately following drug administration at 2 pm on the last 2 to 5 days of drug treatment. There was a minimum 2 day washout period between each treatment dose.
Nepicastat or water (as placebo) was administered for 12 days following a minimum 2 day washout after L-Dopa dosing. Drug was administered twice daily at 10 am and 2 pm by oral gavage. Behavior was rated by IRAM and CRS. The CRS was conducted in the morning, 60 to 90 minutes after the 10 am dose of nepicastat on the last 5 days of drug treatment. Raters (one to three individuals) were blinded to the different treatment groups. IRAM assessments were preformed for 90 minutes immediately following drug administration at 2 pm on the last 5 days of drug treatment.
Eight parkinsonian features were rated in each animal and the total score was derived from the sum of these eight features. For each animal, a single clinical rating score was obtained for each drug dose by averaging the clinical rating scores of all raters (one to three) conducted over the consecutive multiple dosing (with the same dose) days. This average CRS was used for statistical analysis. A lower score was considered a less parkinsonian behavioral state.
Statistical analysis consisted of: (1) comparisons between the average CRS of placebo to nepicastat at 1, 4, and 10 mg/kg/day using the Kruskal-Wallis (non-parametric analysis of variance). This comparison was repeated using the average CRS for each experimental drug concentration corrected by the final post-MPTP ratings for each animal. The corrected clinical scores are clinical scores of experimental drug at each concentration as a ratio of post-MPTP clinical scores. […]

[2] = tested on: spontaneous hypertensive rats; experiment: SCH-23390 pretreatment study in restrained SHRs; type: in vivo; conditions: SCH-23390 iv, post-iv period
Source text: Male, spontaneous hypertensive rats (280-345 g; Charles River Labs, Kingston, N.Y.) were fasted overnight then anesthetized with ether. A femoral artery and femoral vein were cannulated with PE50 tubing for recording of blood pressure and administration of compounds, respectively. Animals were then placed in MAYO restrainers and their feet loosely taped to the restrainer. Heparinized saline (50 units sodium heparin/ml) was used to maintain patency of each cannula throughout the experiment. The following parameters were continuously recorded using Modular Instruments MI^2 BioReport™ software installed on an IBM personal computer: mean arterial pressure (MAP), heart rate (HR), and the change from baseline for each parameter at specified time points in the experiment.
All compounds were dissolved on the day of use. Nepicastat was dissolved in deionized water (vehicle) to a free base concentration of 1 mg/ml. Oral dosing volume for nepicastat or vehicle was 10 ml/kg. SCH-23390 was dissolved in saline (vehicle) to a free base concentration of 0.2 mg/ml. […] or saline were administered intravenously as a bolus in a volume of 1.0 ml/kg followed by 0.2 ml flush of isotonic saline.
Following surgical preparation, each animal was allowed a minimum one hour recovery period. Animals were randomly assigned to four treatment groups: vehicle (iv)/vehicle (po); vehicle (iv)/nepicastat (po); SCH-23390 (iv)/vehicle (po); or SCH-23390 (iv)/nepicastat (po). Once animals were stabilized (minimum one hour), baseline blood pressure and heart rate was determined by taking an average of each parameter over a 15 min period of time. Once baseline blood pressure and heart rate were established, animals were dosed intravenously with either SCH-23390 (200 μg/kg) or vehicle (saline, 1 ml/kg). Fifteen minutes later, animals were orally dosed with either nepicastat (10 mg/kg) or vehicle (deionized water, 10 ml/kg).
Recorded parameters were measured 15 min prior to intravenous dosing to establish baseline blood pressure and heart rate. Recorded parameters were then measured at 5, 10, and 15 min following intravenous administration of SCH-23390 or vehicle. Following oral administration of nepicastat or vehicle, recorded parameters were measured at 15, 30, 60, 90, 120, 150, 180, 210, and 240 min.
At the end of the experiment, each animal was anesthetized with halothane and euthanized via decapitation. The cortex, left ventricle (apex), and mesenteric artery were dissected out, weighed, and fixed in 0.4 M perchloric acid. Tissues were then frozen in liquid nitrogen and stored at −70° C. Biochemical analysis are performed on these tissues at a later date to determine catecholamine levels including dopamine and norepinephrine levels. Blood pressure and heart rate were analyzed separately. The change from baseline for blood pressure and heart rate were analyzed by an analysis of variance (ANOVA) with effects for treatment, time, and their interaction. This analysis was performed both for the post-iv time period and for the post-oral time period. Further analyses were performed at each time by an ANOVA with a main effect for […]. Pairwise comparisons were performed following each ANOVA by Fisher's LSD strategy with a Bonferroni correction when the overall treatment effect was not significant.
An additional analysis was performed to compare the baseline means of each treatment group by an ANOVA with a main effect for treatment and subsequent pairwise comparisons. […]

Sprague Dawley rats = experiment: Locomotor activity and acoustic startle reactivity in rats, acute; type: in vivo; conditions: nepicastat 3-100 mg/kg, SKF-102698 100 mg/kg, clonidine 40 μg/kg
Source text: Rats were housed under a normal light/dark cycle with lights on between 0900 Hrs. and 2100 Hrs. Animals were housed in pairs in standard metal wire cages, and food and water were allowed ad libitum. The locomotor activity boxes consisted of a Plexiglas box measuring 18''×18'' by 12'' high. Surrounding the Plexiglas® boxes were Omnitech Digiscan Monitors (model # RXXCM 16) which consisted of a one inch ban of photobeams and photosensors numbering 32 per box. The number of photobeam breaks were analyzed by an Omnitech Digiscan Analyzer (model # DCM-8). […] A piezoelectric accelerometer transforms the subject's movement into an arbitrary voltage on a scale of 0 to 4095. […] The average startle was calculated for each rat by taking the mean of startle number 11 through 45 (the first ten startles will be disregarded). Sixty-four of these rats were then placed in one of eight treatment groups such that each group had similar mean startle values. The eight treatment groups were as follows: […] […] The rats motor activity was monitored for four hours. […] To evaluate motor activity, horizontal activity (number of photobeams broken), number of movements, and rest time were measured. Each parameter was analyzed separately. […] The startle responses were analyzed using analysis of covariance. […] Therefore, the startle responses were analyzed by time. […]

rats = experiment: Chronic (10 day) dosing behavioral tests in rats; conditions: rat, in vivo
Description: The effects of chronic dosing of nepicastat in rats were examined. Between three and thirteen days prior to the first dosing day the rats were placed inside the startle apparatus and after a five minute acclimation period they were presented with a 118 dB noise burst on average once a minute (a variable inter-trial interval ranging between 30 and 90 seconds will be used) for 20 minutes. The startle responses were measured and a mean for the last twenty startle response was calculated for each rat.
The following behavioral tests were administered during and after chronic dosing; body core temperature, motor activity, acoustic startle reactivity, and pre-pulse inhibition of acoustic startle.
The animals were tested in an enclosed room with a white noise generator running Motor activity tests were conducted immediately after the body core temperature reading taken on dosing day ten (about 3 hours and 35 minutes after the morning daily dose of nepicastat, and SKF-102698, and 20 minutes prior to the daily administration of clonidine and d-amphetamine on dosing day ten). Motor activity tests were run for one hour. A diagnostic program was run on each of the motor activity chambers prior to each test session to assure that the photo beams and light sensors were operating properly. […] D-amphetamine was used as the positive control for this assay.
Rat body core temperatures were obtained by inserting the rectal probe 2 cm into the colon of each rat. Each rat's body core temperature was measured three times and the average of the three reading was calculated. Body core temperature readings were obtained immediately prior to the ten day chronic dosing schedule (to obtain a baseline), and three and half hour after the morning daily dose of nepicastat, and SKF-102698, and 15 minutes prior to the daily administration of clonidine and d-amphetamine, on dosing days one, five and ten. […] Both clonidine (an alpha2 agonist), and d-amphetamine (a dopamine releaser) were used as the positive controls for this assay.
Acoustic startle reactivity (a series of muscle contractions elicited by an intense burst of noise with a rapid onset), and pre-pulse inhibition (sensorimotor gating measured by analyzing any decrease in startle reactivity which occurs when a startling stimulus is immediately preceded by a non startling stimulus) were both measured in eight SR-Lab (San Diego Instruments, San Diego, Calif.) test stations. The rats were placed individually in a Plexiglas cylinder (10 cm diameter) which was housed in a ventilated sound-attenuating enclosure. Acoustic noise bursts (a broad band noise with a rise time and fall time of 1 msec) were presented via a speaker mounted 30 cm above the animal. Also, these speakers produced a 68 dB level of background noise throughout all test sessions. A piezoelectric accelerometer attached below the plexiglass cylinder transduced the subject's movement into a voltage which was then rectified and digitized (on a scale from 0 to 4095) by a PC computer equipped with SR-Lab software and interface assembly. A decibel meter was used to calibrate the speakers in each of the eight test station to ±1% of the mean. Additionally, a SR-Lab calibrating instrument was used to calibrate each of the eight startle detection apparatuses to ±2% of the mean. Startle reactivity and pre-pulse inhibition tests were run concurrently immediately alter the motor activity test (about 4 hours and 40 minutes after the morning daily injection of nepicastat, and SKF-102698, and 10 minutes after a supplemental administration of clonidine and d-amphetamine on dosing day ten).

normotensive Wistar rats = experiment: 7 day radio-telemetry study in normotensive Wistar rats; conditions: hydralazine 10 mg/kg
Description: Male Crl:COBS(WI)BR rats of 15 weeks old were used.
Both nepicastat and hydralazine were prepared in water with traces of Tween 80. All doses were given orally to the rat in 10 ml/kg and were expressed as free base equivalents.
All values were expressed as means±SEM. Statistical significance was defined as a p level of less than 0.05.
Body weights were recorded daily.

SMILES: N[C@@H](Cc1ccc(O)c(O)c1)C(=O)O [L-Dopa, reference compound]
- parkinsonian clinical rating vs post-MPTP ([1]; L-Dopa 2.5 mg/kg): No groups of animals demonstrated significant improvement; also recorded: no significant effect
- parkinsonian clinical rating vs post-MPTP (pre-treatment) ([1]; L-Dopa 5 and 7.5 mg/kg, except Group C at 7.5 and Group B at 5 mg/kg): significant improvement; also recorded: significant effect

SMILES: CN1CCc2cc(Cl)c(O)cc2[C@@H](c2ccccc2)C1 [SCH-23390, reference compound]
- decrease in mean arterial pressure [2]: 5±1 mmHg

SMILES: Clc1cccc(Cl)c1N=C1NCCN1 [clonidine]
- locomotor activity (horizontal activity, movements, rest time) vs vehicle (Sprague Dawley rats): significantly more horizontal activities at 2 and 2.5 hours
- maximum and average acoustic startle response vs vehicle (Sprague Dawley rats): statistically significantly lower maximum and average startle responses
- body core temperature (rats): significantly increasing body core temperature on day one
- pre-pulse inhibition (rats): just significantly higher percent prepulse inhibition

SMILES: NNc1nncc2ccccc12 [hydralazine]
- heart rate (normotensive Wistar rats): varying degrees of tachycardia
- time in which the hypotensive effect subsided (normotensive Wistar rats): 10 h
- maximal decrease in MBP (normotensive Wistar rats; within 1 hr after dosing on day 1): −24 mmHg
